In patent publication US20230348516A1, “YKL-40 INHIBITORS AND THEIR THERAPEUTIC APPLICATIONS” (Molecure S.A., priority 2022, published 2023):
pIC50: −log10 of the molar value.

Biological target: YKL-40 and asialofetuin interaction (Homo sapiens, UniProt P36222)
Assay: Orthogonal YKL-40 AlphaScreen assay using biotinylated asialofetuin (AF-biot)
Format: binding

Chain of YKL-40 and asialofetuin interaction (P36222 22-383): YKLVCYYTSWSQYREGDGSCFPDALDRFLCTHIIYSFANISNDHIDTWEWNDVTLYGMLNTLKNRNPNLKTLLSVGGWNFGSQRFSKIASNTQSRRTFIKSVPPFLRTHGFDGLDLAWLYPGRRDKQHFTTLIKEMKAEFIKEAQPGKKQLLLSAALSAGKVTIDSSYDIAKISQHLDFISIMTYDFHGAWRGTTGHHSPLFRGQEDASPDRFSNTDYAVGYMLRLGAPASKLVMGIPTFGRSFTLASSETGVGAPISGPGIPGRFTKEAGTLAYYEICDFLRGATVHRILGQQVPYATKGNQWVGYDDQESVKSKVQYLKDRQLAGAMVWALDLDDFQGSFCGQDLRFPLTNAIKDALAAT

SMILES	pIC50	interference with YKL-40 and asialofetuin (triantennary LacNac) interaction
Cc1cc(C2CCC(N3C[C@H](C(=O)O)OC[C@@H]3Cc3ccc(Cl)cc3)CC2)nn1C.O=C(O)C(F)(F)F (single isomer, unassigned) [Example 11, 2,2,2-trifluoroacetate]	7.70	
Cc1cc(C2CCC(N3C[C@H](C(=O)O)OC[C@@H]3Cc3ccc(Cl)cc3)CC2)nn1C.O=C(O)C(F)(F)F (single isomer, unassigned) [Example 11]		64%
